# Literature values in patent US20170312324A1, “USE OF MAITAKE AND MAITAKE GRIFOLAN D COMPONENT IN PREPARATION OF ANTIDEPRESSANT DRUG” (Yunnan University, priority 2014, published 2017).
# System: tumor
# Details: comparison experiment with mitomycin
smiles,measurement,value
CO[C@@]12[C@H](COC(N)=O)C3=C(C(=O)C(C)=C(N)C3=O)N1C[C@@H]1N[C@@H]12 [mitomycin],anti-tumor rate / tumor inhibition rate,45%
